# Patent US8551516B2, “Administration of non-oral androgenic steroids to women” (Actavis, Inc., priority 1999, dated 2013)
# Experiments:
# [1] = molecular target: T1, sex hormone binding globulin (SHBG) (Homo sapiens, UniProt P04278); settings: adapted from Dunn et al. 1981; human plasma; cited from earlier work
# T1 sequence (P04278 30-402): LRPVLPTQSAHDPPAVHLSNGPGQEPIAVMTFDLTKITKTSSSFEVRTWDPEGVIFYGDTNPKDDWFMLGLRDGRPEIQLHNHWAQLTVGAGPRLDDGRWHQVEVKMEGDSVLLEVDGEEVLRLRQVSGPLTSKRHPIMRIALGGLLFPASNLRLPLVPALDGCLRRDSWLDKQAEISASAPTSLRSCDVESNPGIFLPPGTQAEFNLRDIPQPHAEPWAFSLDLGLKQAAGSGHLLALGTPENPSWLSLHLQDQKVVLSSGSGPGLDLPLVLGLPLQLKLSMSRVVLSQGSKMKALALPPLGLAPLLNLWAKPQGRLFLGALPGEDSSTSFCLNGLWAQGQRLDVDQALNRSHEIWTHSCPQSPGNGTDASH
# [2] = Example 1: serum hormone levels on the regimen; settings: Example 1 regimen; for bioavailability: female, human, in vivo
# Protocol: The estrogen consisted of conjugated equine estrogen (Premarin® tablets) at a daily dose of 0.625 to 2.5 mg. […] The duration of coadministration was 12 weeks.
# [3] = Estimated testosterone delivery rate for a given increase in free testosterone, power-law regression of FIG. 2; assay type: in vivo, human
# [4] = Predicted change in total testosterone, power-law regression of FIG. 1; settings: for concentration at 3.5 day: human, serum, other: transdermal
# [5] = Pharmacokinetic study of testosterone transdermal matrix patch in surgically menopausal women: total and free testosterone; assay type: in vivo, human; settings: 300 mcg/day patch; for concentration at 3.5 day: female, human, serum, time-average change from baseline, mean±SEM
# Protocol: One group had received no estrogen replacement therapy (ERT) for at least one month, the second group was receiving transdermal estadiol (E2) at a dosage of 0.1 mg/day, and the third group was receiving oral conjugated equine estrogens (CEE) at a dosage of 1.25 mg/day. […] The resultant hormone data (mean±SEM) for the three groups of surgically menopausal women participating in the clinical study is summarized in Table 2 below.
# It should be noted that the normal range for SHBG levels is 36 to 185 nmol/L using the Endocrine Sciences assay.
# [6] = tested on: sexual function, mood and well-being; assay: Example 1: 12-week coadministration of oral estrogen and transdermal testosterone, sexual function, mood and well-being; assay type: in vivo, human; settings: transdermal patch 300 mcg/day twice weekly plus oral Premarin 0.625 to 2.5 mg daily; after 12 weeks; surgically menopausal women
# Description: The duration of coadministration was 12 weeks.
# [7] = Change in FT 1 pg/mL, SHBG 50 nmol/L
# [8] = Change in FT 1 pg/mL, SHBG 84 nmol/L
# [9] = Change in FT 1 pg/mL, SHBG 100 nmol/L
# [10] = Change in FT 1 pg/mL, SHBG 200 nmol/L
# [11] = Change in FT 1 pg/mL, SHBG 400 nmol/L
# [12] = Change in FT 1 pg/mL, SHBG 600 nmol/L
# [13] = Change in FT 1 pg/mL, SHBG 700 nmol/L
# [14] = Change in FT 2.5 pg/mL, SHBG 50 nmol/L
# [15] = Change in FT 2.5 pg/mL, SHBG 84 nmol/L
# [16] = Change in FT 2.5 pg/mL, SHBG 100 nmol/L
# [17] = Change in FT 2.5 pg/mL, SHBG 200 nmol/L
# [18] = Change in FT 2.5 pg/mL, SHBG 400 nmol/L
# [19] = Change in FT 2.5 pg/mL, SHBG 600 nmol/L
# [20] = Change in FT 2.5 pg/mL, SHBG 700 nmol/L
# [21] = Change in FT 5 pg/mL, SHBG 50 nmol/L
# [22] = Change in FT 5 pg/mL, SHBG 84 nmol/L
# [23] = Change in FT 5 pg/mL, SHBG 100 nmol/L
# [24] = Change in FT 5 pg/mL, SHBG 200 nmol/L
# [25] = Change in FT 5 pg/mL, SHBG 400 nmol/L
# [26] = Change in FT 5 pg/mL, SHBG 600 nmol/L
# [27] = Change in FT 5 pg/mL, SHBG 700 nmol/L
# [28] = Change in FT 10 pg/mL, SHBG 50 nmol/L
# [29] = Change in FT 10 pg/mL, SHBG 84 nmol/L
# [30] = Change in FT 10 pg/mL, SHBG 100 nmol/L
# [31] = Change in FT 10 pg/mL, SHBG 200 nmol/L
# [32] = Change in FT 15 pg/mL, SHBG 50 nmol/L
# [33] = Change in FT 15 pg/mL, SHBG 84 nmol/L
# [34] = Change in FT 15 pg/mL, SHBG 100 nmol/L
# [35] = Change in FT 15 pg/mL, SHBG 200 nmol/L
# [36] = Change in FT 15 pg/mL, SHBG 400 nmol/L
# [37] = Change in FT 15 pg/mL, SHBG 600 nmol/L
# [38] = Change in FT 15 pg/mL, SHBG 700 nmol/L
structure (smiles),measurement,setting,value
"C[C@]12CC[C@H]3[C@@H](CCC4=CC(=O)CC[C@@]43C)[C@@H]1CC[C@@H]2O [testosterone, (17)-17-Hydroxyandrost-4-en-3-one]",K (binding affinity constant for SHBG),[1],1600 10^6 Liter/mole
same,women with free testosterone level below 6.8 pg/mL,[2],78%
same,women with free testosterone level below 15 pg/mL,[2],97%
same,women with total testosterone levels in excess of 80 ng/dL,[2],73%
same,bioavailability,[2]; women with bioavailable testosterone level below 12.7 ng/dL,68%
same,bioavailability,[2]; women with bioavailable testosterone level below 35 ng/dL,97%
same,Estimated Delivery Rate,[3]; [7],55 µg/day
same,Estimated Delivery Rate,[3]; [8],69 µg/day
same,Estimated Delivery Rate,[3]; [9],74 µg/day
same,Estimated Delivery Rate,[3]; [10],98 µg/day
same,Estimated Delivery Rate,[3]; [11],131 µg/day
same,Estimated Delivery Rate,[3]; [12],155 µg/day
same,Estimated Delivery Rate,[3]; [13],166 µg/day
same,Estimated Delivery Rate,[3]; [14],139 µg/day
same,Estimated Delivery Rate,[3]; [15],172 µg/day
same,Estimated Delivery Rate,[3]; [16],185 µg/day
same,Estimated Delivery Rate,[3]; [17],246 µg/day
same,Estimated Delivery Rate,[3]; [18],328 µg/day
same,Estimated Delivery Rate,[3]; [19],388 µg/day
same,Estimated Delivery Rate,[3]; [20],414 µg/day
same,Estimated Delivery Rate,[3]; [21],277 µg/day
same,Estimated Delivery Rate,[3]; [22],344 µg/day
same,Estimated Delivery Rate,[3]; [23],369 µg/day
same,Estimated Delivery Rate,[3]; [24],492 µg/day
same,Estimated Delivery Rate,[3]; [25],656 µg/day
same,Estimated Delivery Rate,[3]; [26],111 µg/day
same,Estimated Delivery Rate,[3]; [27],828 µg/day
same,Estimated Delivery Rate,[3]; [28],554 µg/day
same,Estimated Delivery Rate,[3]; [29],687 µg/day
same,Estimated Delivery Rate,[3]; [30],739 µg/day
same,Estimated Delivery Rate,[3]; [31],985 µg/day
same,Estimated Delivery Rate,"[3]; Change in FT 10 pg/mL, SHBG 400 nmol/L",1313 µg/day
same,Estimated Delivery Rate,"[3]; Change in FT 10 pg/mL, SHBG 600 nmol/L",1553 µg/day
same,Estimated Delivery Rate,"[3]; Change in FT 10 pg/mL, SHBG 700 nmol/L",1656 µg/day
same,Estimated Delivery Rate,[3]; [32],831 µg/day
same,Estimated Delivery Rate,[3]; [33],1031 µg/day
same,Estimated Delivery Rate,[3]; [34],1108 µg/day
same,Estimated Delivery Rate,[3]; [35],1477 µg/day
same,Estimated Delivery Rate,[3]; [36],1969 µg/day
same,Estimated Delivery Rate,[3]; [37],2330 µg/day
same,Estimated Delivery Rate,[3]; [38],2484 µg/day
same,Predicted Changes in Total Testosterone,[4]; [7],9 ng/dL
same,Predicted Changes in Total Testosterone,[4]; [8],12 ng/dL
same,Predicted Changes in Total Testosterone,[4]; [9],14 ng/dL
same,Predicted Changes in Total Testosterone,[4]; [10],23 ng/dL
same,Predicted Changes in Total Testosterone,[4]; [11],37 ng/dL
same,Predicted Changes in Total Testosterone,[4]; [12],49 ng/dL
same,Predicted Changes in Total Testosterone,[4]; [13],55 ng/dL
same,Predicted Changes in Total Testosterone,[4]; [14],21 ng/dL
same,Predicted Changes in Total Testosterone,[4]; [15],31 ng/dL
same,Predicted Changes in Total Testosterone,[4]; [16],35 ng/dL
same,Predicted Changes in Total Testosterone,[4]; [17],57 ng/dL
same,Predicted Changes in Total Testosterone,[4]; [18],92 ng/dL
same,Predicted Changes in Total Testosterone,[4]; [19],123 ng/dL
same,Predicted Changes in Total Testosterone,[4]; [20],137 ng/dL
same,Predicted Changes in Total Testosterone,[4]; [21],43 ng/dL
same,Predicted Changes in Total Testosterone,[4]; [22],61 ng/dL
same,Predicted Changes in Total Testosterone,[4]; [23],69 ng/dL
same,Predicted Changes in Total Testosterone,[4]; [24],113 ng/dL
same,Predicted Changes in Total Testosterone,[4]; [25],184 ng/dL
same,Predicted Changes in Total Testosterone,[4]; [26],245 ng/dL
same,Predicted Changes in Total Testosterone,[4]; [27],273 ng/dL
same,Predicted Changes in Total Testosterone,[4]; [28],85 ng/dL
same,Predicted Changes in Total Testosterone,[4]; [29],123 ng/dL
same,Predicted Changes in Total Testosterone,[4]; [30],139 ng/dL
same,Predicted Changes in Total Testosterone,[4]; [31],226 ng/dL
same,Predicted Changes in Total Testosterone,[4]; [32],128 ng/dL
same,Predicted Changes in Total Testosterone,[4]; [33],184 ng/dL
same,Predicted Changes in Total Testosterone,[4]; [34],208 ng/dL
same,Predicted Changes in Total Testosterone,[4]; [35],339 ng/dL
same,Predicted Changes in Total Testosterone,[4]; [36],553 ng/dL
same,Predicted Changes in Total Testosterone,[4]; [37],736 ng/dL
same,Predicted Changes in Total Testosterone,[4]; [38],820 ng/dL
same,concentration at 3.5 day,[4]; 1313 mcg/day,3.68 ng/mL
same,concentration at 3.5 day,[4]; 1553 mcg/day,4.9 ng/mL
same,concentration at 3.5 day,[4]; 1656 mcg/day,5.47 ng/mL
same,concentration at 3.5 day,[4]; 2484 mcg/day,8.2 ng/mL
same,mean increase in free serum testosterone lower in oral estrogen group than other two groups,[5],approximately 40%
same,mean increase in total serum testosterone greater in oral estrogen group than other two groups,[5]; time-averaged change from baseline,approximately 30%
same,concentration at 3.5 day,"[5]; other: transdermal patch, with Transdermal E2 0.1 mg/day, n=12, read-out: Changes in Free T",0.0042 ± 0.0007 ng/mL
same,concentration at 3.5 day,"[5]; other: transdermal patch, with Transdermal E2 0.1 mg/day, n=12, read-out: Changes in Total T",0.536 ± 0.072 ng/mL
same,concentration at 3.5 day,"[5]; other: transdermal patch, 300 mcg/day, No ERT, n=19, 3.5 day application, read-out: Changes in Total T",0.572 ± 0.044 ng/mL
same,concentration at 3.5 day,"[5]; other: transdermal patch, 300 mcg/day, No ERT, n=19, read-out: Changes in Free T",0.0046 ± 0.0004 ng/mL
same,concentration at 3.5 day,"[5]; po, with Oral CEE 1.25 mg/day, n=13, read-out: Changes in Free T",0.00256 ± 0.0003 ng/mL
same,concentration at 3.5 day,"[5]; po, with Oral CEE 1.25 mg/day, n=13, read-out: Changes in Total T",0.708 ± 0.096 ng/mL
same,"sexual function, mood and well-being in comparison to conjugated equine estrogen alone",[6],"improved sexual function, mood and well-being"
